Test results: ChEMBL document CHEMBL2086234, “Phenolic constituents from the rhizomes of Acorus gramineus and their biological evaluation on antitumor and anti-inflammatory activities” (Bioorg Med Chem Lett, 2012)
Calls of active or inactive are those of the source. The rule behind the calls is not given here.

Tests used:
[1] = Cytotoxicity against mouse BV2 cells assessed as cell viability at 20 uM by MTT assay; type: cell-based, BV-2; conditions: read-out: Activity
A549 = experiment: Cytotoxicity against human A549 cells by SRB assay; type: functional, cell-based
SK-OV-3 = experiment: Cytotoxicity against human SKOV3 cells by SRB assay; type: functional, cell-based
SK-MEL-2 = experiment: Cytotoxicity against human SK-MEL-2 cells by SRB assay; type: functional, cell-based
HCT-15 = experiment: Cytotoxicity against human HCT15 cells by SRB assay; type: functional, cell-based
BV-2 [2] = experiment: Antiinflammatory activity in mouse BV2 cells assessed as inhibition of LPS-induced NO production treated 30 mins before LPS stimulation measured after 24 hrs by Griess reaction; type: functional, cell-based
[3] = biological target: T1, Nitric oxide synthase, inducible (Mus musculus) (UniProt P29477); experiment: Inhibition of iNOS activity in mouse BV2 cells assessed as inhibition of LPS-induced NO production at 20 uM treated 12 hrs before LPS challenge measured after 12 hrs by Griess reaction; type: cell-based; conditions: BV-2
T1 sequence (whole entry): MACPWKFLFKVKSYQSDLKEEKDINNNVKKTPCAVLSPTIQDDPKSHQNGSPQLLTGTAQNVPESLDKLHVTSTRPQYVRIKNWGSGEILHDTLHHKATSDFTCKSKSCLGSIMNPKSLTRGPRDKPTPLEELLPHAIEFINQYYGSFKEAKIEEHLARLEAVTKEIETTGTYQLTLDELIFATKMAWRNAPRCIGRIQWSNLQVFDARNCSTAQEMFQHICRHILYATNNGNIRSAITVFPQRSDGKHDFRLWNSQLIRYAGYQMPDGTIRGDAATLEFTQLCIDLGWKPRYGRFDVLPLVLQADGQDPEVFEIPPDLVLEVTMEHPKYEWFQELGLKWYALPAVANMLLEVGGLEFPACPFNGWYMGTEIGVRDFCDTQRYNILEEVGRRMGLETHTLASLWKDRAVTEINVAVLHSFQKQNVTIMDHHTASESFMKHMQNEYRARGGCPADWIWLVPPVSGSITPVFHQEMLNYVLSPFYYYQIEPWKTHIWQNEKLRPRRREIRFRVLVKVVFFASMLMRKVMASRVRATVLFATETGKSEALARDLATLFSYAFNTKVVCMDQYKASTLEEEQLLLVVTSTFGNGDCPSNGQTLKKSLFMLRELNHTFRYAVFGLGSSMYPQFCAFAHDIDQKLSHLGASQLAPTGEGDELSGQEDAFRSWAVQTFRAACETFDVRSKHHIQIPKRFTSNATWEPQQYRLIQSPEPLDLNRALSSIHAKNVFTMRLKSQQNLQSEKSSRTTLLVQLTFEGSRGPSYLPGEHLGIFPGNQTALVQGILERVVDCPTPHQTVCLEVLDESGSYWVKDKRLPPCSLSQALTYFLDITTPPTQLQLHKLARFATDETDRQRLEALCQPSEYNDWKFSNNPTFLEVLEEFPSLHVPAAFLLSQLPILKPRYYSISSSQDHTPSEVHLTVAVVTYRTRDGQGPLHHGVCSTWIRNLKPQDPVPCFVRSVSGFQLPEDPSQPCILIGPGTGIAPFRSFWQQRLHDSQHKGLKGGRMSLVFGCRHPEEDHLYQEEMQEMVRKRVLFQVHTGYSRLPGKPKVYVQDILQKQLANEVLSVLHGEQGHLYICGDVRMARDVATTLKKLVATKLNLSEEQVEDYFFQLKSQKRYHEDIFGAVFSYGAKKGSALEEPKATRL

BV-2 [4] = experiment: Antiinflammatory activity in mouse BV2 cells assessed as inhibition of LPS-induced iNOS protein expression at 10 to 20 uM treated 30 mins before LPS stimulation measured after 6 hrs by Western blot analysis; type: functional, cell-based
BV-2 [5] = experiment: Antiinflammatory activity in mouse BV2 cells assessed as inhibition of sodium nitroprusside-induced nitrite accumulation at 10 to 20 uM after 180 mins by Griess reaction; type: functional, cell-based

Row | SMILES | IC50 (BV-2 [2]) | inhibition [3] | viability at 20 µM [1] | IC50 (A549) | IC50 (SK-OV-3) | IC50 (SK-MEL-2) | IC50 (HCT-15) | inhibition (BV-2 [4]) | inhibition (BV-2 [5])
1 | COc1cc(/C=C\CO)ccc1O | 14.1 µM | Active | 98.4% | 11 µM | 13 µM | 14.7 µM | 20.4 µM | Active | 
2 | COc1cc(/C=C\C(=O)NCCc2ccc(O)cc2)ccc1O | 32.1 µM |  | 100% | > 30 µM | > 30 µM | > 30 µM | > 30 µM |  | 
3 | COc1cc(/C=C/C(=O)NC[C@@H](O)c2ccc(O)cc2)ccc1O | 54.8 µM |  | 98.3% | > 30 µM | > 30 µM | > 30 µM | > 30 µM |  | 
4 | COc1cc([C@H](O)[C@@H](CO)Oc2c(OC)cc(CCCO)cc2OC)ccc1O (relative stereo) | 37.2 µM |  | 106% | > 30 µM | > 30 µM | 29.1 µM | > 30 µM |  | 
5 | COc1cc(OC)c([C@H]2[C@@H](C)[C@@H](c3cc(OC)c(OC)cc3OC)O[C@@H]2C)cc1OC (relative stereo) | 59.9 µM |  | 101% | > 30 µM | 26.4 µM | 11.3 µM | > 30 µM |  | 
6 | COc1cc(OC)c([C@@H]2[C@H](C)[C@@H](C)[C@H]2c2cc(OC)c(OC)cc2OC)cc1OC (relative stereo) [MAGNOSALIN] | 18.7 µM |  | 93.1% | 19.6 µM | 27.4 µM | 8.7 µM | 23.1 µM | Active | Active
7 | COc1cccc2c1C(=O)c1c(O)c3c(c(O)c1C2=O)C[C@@](O)(C(=O)CO)C[C@@H]3O[C@H]1C[C@H](N)[C@H](O)[C@H](C)O1 [DOXORUBICIN] |  |  |  |  | 0.004 µM | 0.004 µM | 0.082 µM |  | 
8 | COc1cc(/C=C/C(=O)NCCc2ccc(O)cc2)ccc1O [N-TRANS-FERULOYL TYRAMINE] | 17.4 µM | Active | 97.8% | > 30 µM | > 30 µM | > 30 µM | > 30 µM | Active | Active
9 | CNC(=N)NCCC[C@H](N)C(=O)O [TILARGININE] | 18.2 µM |  | 98.8% |  |  |  |  |  | 

More lines, main results first:

Row | IC50 (BV-2 [2]) | inhibition [3] | SMILES | viability at 20 µM [1] | IC50 (A549) | IC50 (SK-OV-3) | IC50 (SK-MEL-2) | IC50 (HCT-15) | inhibition (BV-2 [4]) | inhibition (BV-2 [5])
10 | 58.1 µM |  | O=C(CCO)c1ccc(O)cc1 | 107% | > 30 µM | > 30 µM | > 30 µM | > 30 µM |  | 
11 | 17.9 µM | Active | COc1cc(CCCO)ccc1O[C@H](C)[C@H](O)c1cc(OC)c(OC)c(OC)c1 | 88.8% | 4.17 µM | 26.2 µM | 14.2 µM | 24.3 µM |  | 
12 | 142 µM |  | COc1cc(CCCO)cc(OC)c1OC | 96.3% | > 30 µM | > 30 µM | > 30 µM | > 30 µM |  | 
13 | > 500 µM |  | COc1ccc(CCCO)cc1OC | 103% | 23.1 µM | 11.8 µM | 21.9 µM | 26.6 µM |  | 
14 | 126 µM |  | COc1cc(OC)c(OC)cc1/C=C\CO [ACORAMOL] | 105% | > 30 µM | > 30 µM | 25.2 µM | > 30 µM |  | 
15 | 8.17 µM |  | COc1cc(CCCO)ccc1O[C@H](C)[C@@H](O)c1cc(OC)c(OC)c(OC)c1 [SURINAMENSINOL B] | 76.2% | 5.41 µM | 21.4 µM | 10.4 µM | 18.8 µM |  | Active
